Drawing on patent publication US5436260A, “Angiotensin II receptor antagonists” (Warner-Lambert Company, priority 1994, dated 1995), this text covers IC50 for 24 compounds.

Where a name gives a salt, the structure may show the parent alone.

The target in the test is T1, AT1 receptor (Rattus norvegicus, UniProt P25095).
T1 construct: rat liver membranes; from tissue; host or cells: rat liver membranes
T1 sequence (P25095 1-359): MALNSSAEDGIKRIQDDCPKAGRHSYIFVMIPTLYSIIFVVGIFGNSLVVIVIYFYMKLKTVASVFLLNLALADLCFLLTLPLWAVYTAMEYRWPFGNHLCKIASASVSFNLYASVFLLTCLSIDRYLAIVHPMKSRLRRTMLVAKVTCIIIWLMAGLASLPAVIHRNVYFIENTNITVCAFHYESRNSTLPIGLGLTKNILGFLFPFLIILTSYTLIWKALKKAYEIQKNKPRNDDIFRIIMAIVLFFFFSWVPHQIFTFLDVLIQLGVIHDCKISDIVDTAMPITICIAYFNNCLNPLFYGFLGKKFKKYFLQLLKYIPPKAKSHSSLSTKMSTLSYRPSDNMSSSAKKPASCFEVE
Put plainly: [^3 H]angiotensin II binding to rat liver membranes (AT1 test). Conditions: inhibition of [^3 H]angiotensin II binding. On the procedure:
The compounds of Formula I or Ia are antagonists of angiotensin II. Dudley, D. T., et al, Molecular Pharmacology 1990;38:370-377 reported the existence of 2 subclasses of angiotensin II binding sites in rabbit adrenal gland and uterus and in the rat liver which differ in their tissue distribution and affinity for various peptide and nonpeptide ligands. Thus, the compounds of Formula I or Ia were tested for their ability to inhibit [^3 H]angiotensin II binding to rat liver membranes (AT1 test) according to the methods described by Dudley, D. T., et al, Molecular Pharmacology 1990;38:370-7. […] It is well established that compounds which antagonize the effect of angiotensin II at the AT1 receptor have value for treatment of hypertension and heart failure.
What is called IC50 is the concentration at which inhibition is half-maximal. The low end stands for greater potency in that assay, the high end for weaker potency in that assay. `CCCCCCN1C(=O)/C(=C/c2cnc(CCCC)n2Cc2ccc(C(=O)OC)cc2)N(Cc2ccsc2)C1=O` [Example 49, Methyl Z-4-[[2-butyl-5-[[1-hexyl-2,5-dioxo-3-(3-thienylmethyl)-4-imidazolidinylidene]methyl]-1H-imidazol-1-yl]methyl]benzoate monohydrochloride] yielded an IC50 of 9.48 nM. Consider `CCCCc1ncc(/C=C2\NC(=O)N(COC)C2=O)n1Cc1ccc(C(=O)OC)cc1` [Example 53], for which the IC50 was over 1000 nM.

The compound `CCCCc1ncc(/C=C2\C(=O)NC(=O)N2CCCCO)n1Cc1ccc(C(=O)OC)cc1` [Example 17a] registered an IC50 of 98.3 nM.

Compound `CCCCc1ncc(/C=C2/C(=O)N(CCCC)C(=O)N2Cc2cccs2)n1Cc1ccc(C(=O)O)cc1` [Example 75, Z-4-[[2-butyl-5-[[1-butyl-2,5-dioxo-3-(2-thienylmethyl)-4-imidazolidinylidene]methyl]-1H-imidazol-1-yl]methyl]benzoic acid] came in with an IC50 of 0.64 nM. The result for `CCCCc1ncc(/C=C2\C(=O)NC(=O)N2CCCC)n1Cc1ccc(C(=O)OC)cc1` [Example 15a, (E)-4-[[2-Butyl-5-[(3-butyl-2,5-dioxo-4-imidazolidinylidene)methyl]-1H-imidazole-1-yl]methyl]benzoic acid, methyl ester] reads 10.9 nM. The figure for `CCCCc1ncc(/C=C2/C(=O)N(CCCC)C(=O)N2Cc2csc(N)n2)n1Cc1ccc(C(=O)OC)cc1` [Example 62, Methyl Z-4-[[2-butyl-5-[[1-butyl-3-[(2-amino-4-thiazolyl)methyl]-2,5-dioxo-4-imidazolidinylidene]methyl]-1H-imidazol-1-yl]methyl]benzoate dihydrochloride] is 1.21 nM; for `CCCCc1ncc(/C=C2\C(=O)NC(=O)N2CCCC)n1Cc1ccc(-c2ccccc2-c2nn[nH]n2)cc1` [Example 92] it is 2.72 nM; for `CCCCc1ncc(/C=C2/C(=O)N(CCCC)C(=O)N2Cc2csc(C)n2)n1Cc1ccc(C(=O)OC)cc1Cl` [Example 110, Methyl Z-4-[[2-butyl-5-[[1-butyl-3-[(2-methyl-4-thiazolyl)methyl]-2,5-dioxo-4-imidazolidinylidene[methyl]-1H-imidazol-1-yl]methyl]-3chloro benzoatemonohydrochloride] it is 2.47 nM. Compound `CCCCc1ncc(/C=C2/C(=O)N(CCCC)C(=O)N2Cc2nn[nH]n2)n1Cc1ccc(C(=O)OC)cc1` [Example 44, Methyl Z-4-[[2-butyl-5-[[1-butyl-2,5-dioxo-3-(1H-tetrazol-5-ylmethyl)-4-imidazolidinylidene]methyl]-1H-imidazol-1-yl]methyl]benzoate monohydrochloride] yielded an IC50 of 41.7 nM. The result for `CCCCc1ncc(/C=C2/C(=O)NC(=O)N2CCC(C)C)n1Cc1ccc(C(=O)O)cc1` [Example 2b] reads 8.8 nM. For the compound `CCCCc1ncc(/C=C2/C(=O)N(CCCC)C(=O)N2CCCC)n1Cc1ccc(C(=O)OC)cc1` [Example 22, Methyl Z-4-[[-2-butyl-5-[(1,3-dibutyl-2,5-dioxo-4-imidazolidinylidene)methyl]-1H -imidazol-1-yl]methyl]benzoate monohydrochloride], the IC50 was 1.67 nM. The result for `CCCCc1ncc(/C=C2\NC(=O)N(CCCC)C2=O)n1Cc1ccc(C(=O)OC)cc1` [Example 32a, Methyl Z-4-[[2-butyl-5-[(1-butyl-2,5-dioxo-4-imidazolidinylidene)methyl]-1H-imidazol-1-yl]methyl]benzoate monohydrochloride] reads 178 nM; that for `CCCCc1ncc(/C=C2/C(=O)N(CCCC(F)(F)F)C(=O)N2CCCC(F)(F)F)n1Cc1ccc(C(=O)OC)cc1` [Example 113, dihydrochloride], 18.3 nM; that for `CCCCc1ncc(/C=C2/C(=O)N(COC)C(=O)N2Cc2csc(C)n2)n1Cc1ccc(C(=O)OC)cc1` [Example 56, Methyl Z-4-[[2-butyl-5-[[1-(methoxymethyl)-3-[(2-methyl-4-thiazolyl)methyl]-2,5-dioxo-4-imidazolidinylidene]methyl]-1H-imidazol-1-yl]methyl]benzoate dihydrochloride], 47.8 nM. The figure for `CCCCc1ncc(/C=C2/C(=O)N(CCCC)C(=O)N2C(c2ccccc2)c2ccccc2)n1Cc1ccc(C(=O)OC)cc1` [Example 42, Methyl Z-4-[[2-butyl-5-[[1-butyl-2,5-dioxo-3-(diphenylmethyl)-4-imidazolidinylidene]methyl]-1H-imidazol-1-yl]methyl]benzoate mono hydrochloride] is 884 nM; for `CCCCc1ncc(/C=C2/C(=O)N(CCCC)C(=O)N2CCc2ccccc2)n1Cc1ccc(C(=O)OC)cc1` [Example 41, Methyl Z-4-[[2-butyl-5-[[1-butyl-2,5-dioxo-3-(2-phenylethyl)-4-imidazolidinylidene]methyl]-1H-imidazol-1-yl]methyl]benzoate mono hydrochloride] it is 30.9 nM.

The compound `CCCCc1ncc(/C=C2/C(=O)N(CCCC)C(=O)N2Cc2ccc(Br)s2)n1Cc1ccc(C(=O)OC)cc1` [Example 77, Methyl Z-4-[[5-[[3-[(5-bromo-2-thienyl)methyl]-1-butyl-2,5-dioxo-4-imidazolidinylidene]methyl]-2-butyl-1H-imidazol-1-yl]methyl]benzoate monohydrochloride] came in with an IC50 of 17.8 nM. The result for `CCCCc1ncc(/C=C2/C(=O)NC(=O)N2C)n1Cc1ccc(C(=O)O)cc1` [Example 3b, (Z)-4-[[2-Butyl-5-[(2,5-dioxo-3-methyl-4-imidazolidinylidene)methyl]-1H-imidazol-1-yl]methyl]benzoic acid] reads 83.8 nM; that for `CCCCc1ncc(/C=C2\C(=O)NC(=O)N2C)n1Cc1ccc(C(=O)O)cc1` [Example 3a, (E)-4-[[2-Butyl-5-[(2,5-dioxo-3-methyl-4-imidazolidinylidene)methyl]-1H-imidazol-1-yl]methyl]benzoic acid], 172 nM; that for `CCCCc1ncc(/C=C2\C(=O)NC(=O)N2Cc2cccs2)n1Cc1ccc(C(=O)O)cc1` [Example 6a], 2.97 nM.

Take `CCCCc1ncc(/C=C2/C(=O)NC(=O)N2C)n1Cc1ccc(-c2ccccc2-c2nnn[nH]2)cc1` [Example 93, Z-5-[[2-butyl-3-[[2'-(1H-tetrazol-5-yl)[1,1 '-biphenyl]-4-yl]methyl]-3H-imidazol-4-yl]methylene]1-methyl-2,4-imidazolidinedione]: the IC50 came out at 5.51 nM. For `CCCCc1ncc(/C=C2/C(=O)NC(=O)N2Cc2ccc(Cl)cc2)n1Cc1ccc(C(=O)O)cc1` [Example 20b, Z-4-[[2-butyl-5-[[3-[(4-chlorophenyl)methyl]-2,5-dioxo-4-imidazolidinylidene]methyl]-1H-imidazol-1-yl]methyl]benzoic acid], the IC50 is 2.47 nM. The figure for `CCCCc1ncc(/C=C2/C(=O)N(CCCC)C(=O)N2Cc2ccccc2Cl)n1Cc1ccc(C(=O)OC)cc1` [Example 61, Methyl Z-4-[[2-butyl-5-[[1-butyl-3-[(2-chlorophenyl)methyl]-2,5-dioxo-4-imidazolidinylidene]methyl]-1H-imidazol-1-yl-]methyl]benzoate monohydrochloride] is 59.8 nM. The result for `CCCCc1ncc(/C=C2/C(=O)NC(=O)N2CCCC)n1Cc1ccc(NS(=O)(=O)C(F)(F)F)cc1` [Example 71a, Z-N-[4-[[2-butyl-5-[(3-butyl-2,5-dioxo-4-imidazolidinylidene)methyl]-1H-imidazol-1-1yl]methyl]phenyl]-1,1,1,-trifluoromethanesulfonamide] reads 3.21 nM.
